This is an account of results in patent US10440955B2, “Methods comprising a biocidal polyamine” (Curza Global, LLC, priority 2013, dated 2019).

For one data set, the system named is MRSA. The data set is described as follows: MIC, 96-well CAMHB, 10^5 to 10^2 CFU/mL in 24 hours. Type of data set: cell-based, Staphylococcus aureus. Conditions: Staphylococcus aureus, MRSA, read-out: MIC (MRSA). As to the method: (§1) To determine the MIC of polyamine compounds, the protocol described herein was used.
In brief, a 0.5 McFarland of each bacterial isolate was made. A 0.5 McFarland is a measure of turbidity in a liquid sample that contains approximately 1×10^∧8 CFU/mL. The 0.5 McFarland standard was diluted in cation adjusted Mueller Hinton Broth (CAMHB), and 50 μL of broth were added to a well of a 96-well plate. In addition, 50 μL of CAMHB that contained a desired concentration of antimicrobial were also added to the well for a final volume of 100 μL and a final concentration of approximately 5×10^4 CFU/well (which equated to approximately 5×10^5 CFU/mL). Each well contained a desired amount of polyamine compound in order to experimentally determine the MIC. Each 96-well plate was incubated at 37° C. for 24 hours. The contents of each well were plated on tryptic soy agar (TSA). TSA plates were incubated for 37° C. for 24 hours after which the number of CFU were counted and used to calculate the CFU/mL that remained after exposure to varying concentrations of compound. This procedure was repeated n=8 times for each concentration of antimicrobial. […]

A further data set concerns A. baumannii. The description is as above. Type of data set: cell-based, Acinetobacter baumannii. Conditions: Acinetobacter baumannii, read-out: MIC (A. bumannii). How it is done:
as §1
(§2) In brief, a 0.5 McFarland of each bacterial isolate was made. A 0.5 McFarland is a measure of turbidity in a liquid sample that contains approximately 1×10^∧8 CFU/mL. The 0.5 McFarland standard was diluted in cation adjusted Mueller Hinton Broth (CAMHB), and 50 μL of broth were added to a well of a 96-well plate. In addition, 50 μL of CAMHB that contained a desired concentration of antimicrobial were also added to the well for a final volume of 100 μL and a final concentration of approximately 5×10^4 CFU/well (which equated to approximately 5×10^5 CFU/mL). Each well contained a desired amount of polyamine compound in order to experimentally determine the MIC. Each 96-well plate was incubated at 37° C. for 24 hours. The contents of each well were plated on tryptic soy agar (TSA). TSA plates were incubated for 37° C. for 24 hours after which the number of CFU were counted and used to calculate the CFU/mL that remained after exposure to varying concentrations of compound. This procedure was repeated n=8 times for each concentration of antimicrobial.
A 0.5 McFarland of A. baumannii is made. A 0.5 McFarland is a measure of turbidity in a liquid sample that contains approximately 7.5×10^7 CFU/mL. The 0.5 McFarland standard is diluted in CAMHB and 50 μL of broth is added to a well of a 96-well plate. In addition, 50 μL of CAMHB that contains a desired concentration of antimicrobial is added to the well for a final volume of 100 μL and a final concentration of approximately 5×10^4 CFU/well (which equates to approximately 5×10^5 CFU/mL). Each well contains a desired amount of CZ compound in order to experimentally determine the MIC. Each 96-well plate is incubated at 37° C. for 24 hours. The contents of each well is plated on tryptic soy agar (TSA). TSA plates is incubated at 37° C. for 24 hours after which the number of CFUs is counted and used to calculate the CFU/mL that remain after exposure to varying concentrations of compound. This procedure is repeated n=8 times for each concentration of antimicrobial. […]

Another data set relates to P. aeruginosa. The data set is described as above. Type of data set: cell-based, Pseudomonas aeruginosa. Conditions: for MIC: Pseudomonas aeruginosa. As to the method: as §1, §2
A further data set deals with L-929 cells (ATCC CCL-1). Nature of the data set: Minimal Essential Media (MEM) Elution cytotoxicity test. Type of data set: cell-based. As to the method:
Summary: The Minimal Essential Media (MEM) Elution test was designed to determine the cytotoxicity of extractable substances. The test article was added to cell monolayers and incubated. The cell monolayers were examined and scored based on the degree of cellular destruction.
Acceptance Criteria: The United States Pharmacopeia & National Formulary (USP <87>) states that the test article meets the requirements, or receives a passing score (Pass) if the reactivity grade is not greater than grade 2 or a mild reactivity.
Acceptance criteria were based upon the negative and media controls receiving “0” reactivity grades and positive controls receiving a 3-4 reactivity grades (moderate to severe).
The cell monolayers were examined microscopically. The wells were scored as to the degree of discernable morphological cytotoxicity on a relative scale of 0 to 4:
The results from the three wells were averaged to give a final cytotoxicity score.
[…] This initial concentration was then diluted 1: 2, 1:4, 1:8, and 1:16. Multiple well cell culture plates were seeded with a verified quantity of industry standard L-929 cells (ATCC CCL-1) and incubated until approximately 80% confluent. The test articles and control extracts were added to the cell monolayers in triplicate. The cells were incubated at 37±1° C. with 5±1% CO2 for 48±3 hours.

[1] abbreviates: Table 5, read-out: MIC (P. aeruginosa).
Where [2] appears, read: Table 10A, dilution 1:2 of 25 μg/mL.
The mark [3] stands for this setting: Table 10A, dilution 1:4 of 25 μg/mL.
The mark [4] stands for this setting: Table 10A, dilution 1:8 of 25 μg/mL.
Setting [5] is: Table 10A, dilution 1:16 of 25 μg/mL.
[6] abbreviates: read-out: MIC (P. aeruginosa), Table 5.
Setting [7] is: Table 11A, dilution 1:2 of 25 μg/mL.
[8] abbreviates: Table 11A, dilution 1:4 of 25 μg/mL.
Where [9] appears, read: Table 11A, dilution 1:8 of 25 μg/mL.
Setting [10] is: Table 11A, dilution 1:16 of 25 μg/mL.

The structures appear in SMILES notation. Counter-ions that a name gives are not always drawn. Like-named read-outs stand apart in the source and are kept apart here.

The MIC is the smallest concentration in the dilution series that meets the test's criterion for growth inhibition. In the case of `NCCCCCCCCCCCCNCc1cccc(CNCCCCCCCCCCCCN)c1` [CZ-21, N^1,N^1′-(1,3-phenylenebis(methylene))bis(dodecane-1,12-diamine), hydrochloride salt], the MIC in the data set on MRSA is < 50 µM; in the data set on A. baumannii, > 100 µM.

On to `NCCCNCCCNCc1cc(CNCCCNCCCN)cc(CNCCCNCCCN)c1` [CZ-55], for which the minimal inhibitory concentration (MIC) with MRSA (Table 5) is < 50 µM; in the data set with P. aeruginosa (setting [1]), < 50 µM; with A. baumannii (Table 5) it was > 100 µM.

Regarding `NCCCNCCCNCc1cc(CNCCCNCCCN)cc(-c2c(CNCCCNCCCN)cccc2CNCCCNCCCN)c1` [CZ-60], the minimal inhibitory concentration (MIC) in the data set with MRSA (Table 5) was < 50 µM; in the data set on P. aeruginosa (setting [1]), > 100 µM; in the data set on A. baumannii (Table 5), > 100 µM.

With `NCCCNCCCNCc1cc(CNCCCNCCCN)cc(-c2ccc3c(c2)OCO3)c1` [CZ-61, N^1,N^1′-((5-(benzo[d][1,3]dioxol-5-yl)-1,3-phenylene)bis(methylene))bis(N^3-(3-ammoniopropyl)propane-1,3-diaminium) chloride], in the data set on A. baumannii, the MIC is < 50 µM.

As for `NCCCNCCCNCc1cccc(-c2cc(CNCCCNCCCN)cc(CNCCCNCCCN)c2)c1` [CZ-62, N^1,N^1′,N^1″-([1,1′-biphenyl]-3,3′,5-triyltris(methylene))tris(N^3-(3-aminopropyl)propane-1,3-diamine), hydrochloride salt], in the data set with A. baumannii, the MIC was < 50 µM. Further, the “Results Pass/Fail” value was “Fail (a numerical grade greater than 2 is considered a cytotoxic effect, or a failing score (Fail))” in the data set with L-929 cells (ATCC CCL-1) (Table 10A, 25 μg/mL); “Fail (a numerical grade greater than 2 is considered a cytotoxic effect, or a failing score (Fail))” in the data set on L-929 cells (ATCC CCL-1) (setting [2]); “Fail (a numerical grade greater than 2 is considered a cytotoxic effect, or a failing score (Fail))” in the data set with L-929 cells (ATCC CCL-1) (setting [3]); “Pass (receives a passing score (Pass) if the reactivity grade is not greater than grade 2 or a mild reactivity)” with L-929 cells (ATCC CCL-1) (setting [4]); “Pass (receives a passing score (Pass) if the reactivity grade is not greater than grade 2 or a mild reactivity)” in the data set with L-929 cells (ATCC CCL-1) (setting [5]).

For the compound `Cc1ccccc1-c1cc(CNCCCNCCCN)cc(CNCCCNCCCN)c1` [CZ-63, N^1,N^1′-((2′-methyl-[1,1′-biphenyl]-3,5-diyl)bis(methylene))bis(N^3-(3-aminopropyl)propane-1,3-diamine), hydrochloride salt], the minimum inhibitory concentration (MIC) with A. baumannii is < 50 µM.

Consider `NCCCNCCCNCc1ccc(-c2cc(CNCCCNCCCN)cc(CNCCCNCCCN)c2)cc1` [CZ-65, N^1,N^1′,N^1″-([1,1′-biphenyl]-3,4′,5-triyltris(methylene))tris(N^3-(3-aminopropyl)propane-1,3-diamine), hydrochloride salt], for which the minimum inhibitory concentration (MIC) with A. baumannii was < 50 µM. Also, the “Results Pass/Fail” value in the data set on L-929 cells (ATCC CCL-1) (Table 10A, 25 μg/mL) is on record as “Fail (a numerical grade greater than 2 is considered a cytotoxic effect, or a failing score (Fail))”; in the data set with L-929 cells (ATCC CCL-1) (setting [2]), “Fail (a numerical grade greater than 2 is considered a cytotoxic effect, or a failing score (Fail))”; with L-929 cells (ATCC CCL-1) (setting [3]) it was “Pass (receives a passing score (Pass) if the reactivity grade is not greater than grade 2 or a mild reactivity)”; in the data set on L-929 cells (ATCC CCL-1) (setting [4]) it was “Pass (receives a passing score (Pass) if the reactivity grade is not greater than grade 2 or a mild reactivity)”; in the data set on L-929 cells (ATCC CCL-1) (setting [5]), “Pass (receives a passing score (Pass) if the reactivity grade is not greater than grade 2 or a mild reactivity)”.

As to `NCCCNCCCNCCCNCc1cc(CNCCCNCCCNCCCN)cc(-c2ccccc2)c1` [CZ-73, N^1,N^1′-([1,1′-biphenyl]-3,5-diylbis(methylene))bis(N^3-(3-((3-aminopropyl)amino)propyl)propane-1,3-diamine), hydrochloride salt], the MIC in the data set on A. baumannii was in the range of 50 to 100 µM.

Take `CCCCC(CC)COc1cc(CNCCCNCCCN)cc(CNCCCNCCCN)c1` (stereo not shown) [CZ-81, N^1,N^1′-((5-((2-ethylhexyl)oxy)-1,3-phenylene)bis(methylene))bis(N^3-(3-aminopropyl)propane-1,3-diamine), hydrochloride salt]: the MIC with MRSA, in the data set with P. aeruginosa (setting [6]) and in the data set on A. baumannii was < 50 µM throughout.

For the compound `CCCCNCCCNCCCNCc1cc(CNCCCNCCCNCCCC)cc(-c2ccccc2)c1` [CZ-83, N^1,N^1′-([1,1′-biphenyl]-3,5-diylbis(methylene))bis(N^3-(3-(butylamino)propyl)propane-1,3-diamine), hydrochloride salt], the minimum inhibitory concentration (MIC) in the data set with MRSA, in the data set with P. aeruginosa (setting [6]) and in the data set on A. baumannii was < 50 µM each time.

Regarding `c1ccc(-c2cc(CNCCCNCCCNCC3CCCCC3)cc(CNCCCNCCCNCC3CCCCC3)c2)cc1` [CZ-96, N^1,N^1′-([1,1′-biphenyl]-3,5-diylbis(methylene))bis(N^3-(3-((cyclohexylmethyl)amino)propyl)propane-1,3-diamine)], the minimal inhibitory concentration (MIC) in the data set with MRSA (Table 5) and in the data set with P. aeruginosa (setting [1]) was < 50 µM each time. The “Results Pass/Fail” value was “Pass (receives a passing score (Pass) if the reactivity grade is not greater than grade 2 or a mild reactivity)” with L-929 cells (ATCC CCL-1) (Table 11A, 25 μg/mL); “Pass (receives a passing score (Pass) if the reactivity grade is not greater than grade 2 or a mild reactivity)” in the data set with L-929 cells (ATCC CCL-1) (setting [7]); “Pass (receives a passing score (Pass) if the reactivity grade is not greater than grade 2 or a mild reactivity)” in the data set on L-929 cells (ATCC CCL-1) (setting [8]); “Pass (receives a passing score (Pass) if the reactivity grade is not greater than grade 2 or a mild reactivity)” with L-929 cells (ATCC CCL-1) (setting [9]); “Pass (receives a passing score (Pass) if the reactivity grade is not greater than grade 2 or a mild reactivity)” in the data set with L-929 cells (ATCC CCL-1) (setting [10]).

`CC(C)CNCCCNCCCNCc1cccc(-c2cc(CNCCCNCCCNCC(C)C)cc(CNCCCNCCCNCC(C)C)c2)c1` [CZ-99, N^1,N^1′,N^1″-([1,1′-biphenyl]-3,3′,5-triyltris(methylene))tris(N^3-(3-(isobutylamino)propyl)propane-1,3-diamine)]: in the data set with MRSA (Table 5), the MIC is < 50 µM. The “MIC (P. aeruginosa)” value in the data set on P. aeruginosa (Table 5) was “++ to +++”. Also, the “Results Pass/Fail” value in the data set on L-929 cells (ATCC CCL-1) (Table 11A, 25 μg/mL) is “Pass (receives a passing score (Pass) if the reactivity grade is not greater than grade 2 or a mild reactivity)”; in the data set with L-929 cells (ATCC CCL-1) (setting [7]), “Pass (receives a passing score (Pass) if the reactivity grade is not greater than grade 2 or a mild reactivity)”; with L-929 cells (ATCC CCL-1) (setting [8]) it was “Pass (receives a passing score (Pass) if the reactivity grade is not greater than grade 2 or a mild reactivity)”; in the data set on L-929 cells (ATCC CCL-1) (setting [9]), “Pass (receives a passing score (Pass) if the reactivity grade is not greater than grade 2 or a mild reactivity)”; with L-929 cells (ATCC CCL-1) (setting [10]) it was “Pass (receives a passing score (Pass) if the reactivity grade is not greater than grade 2 or a mild reactivity)”.
